These results are taken from PubChem BioAssay AID252 (DTP/NCI, 2004).

The experiment deals with BDF1 mice, intracerebral L1210 leukemia, survival T/C. The experiment is described as follows: NCI In Vivo Anticancer Drug Screen. Data for tumor model L1210 Leukemia (intracerebral) in B6D2F1 (BDF1) mice. Particulars: higher = longer survival. The essentials: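 Tumour was transplanted, animals received compound or vehicle, then survival in each group was measured and treated divided by control.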

[1] abbreviates: endpoint: mean survival time, dose: 0.75 mg/kg/injection, schedule: Q01DX009 (ip), vehicle: saline.
Setting [2] is: endpoint: mean survival time, dose: 1.5 mg/kg/injection, schedule: Q01DX009 (ip), vehicle: saline.
The mark [3] stands for this setting: endpoint: mean survival time, dose: 2.5 mg/kg/injection, schedule: Q01DX009 (ip), vehicle: saline.
Setting [4] is: endpoint: mean survival time, dose: 2.5 mg/kg/injection, schedule: Q01DX009 (sc), vehicle: saline.
Where [5] appears, read: endpoint: mean survival time, dose: 5.0 mg/kg/injection, schedule: Q01DX009 (ip), vehicle: saline.
The mark [6] stands for this setting: endpoint: mean survival time, dose: 5.0 mg/kg/injection, schedule: Q01DX009 (sc), vehicle: saline.
The mark [7] stands for this setting: endpoint: mean survival time, dose: 10.0 mg/kg/injection, schedule: Q01DX009 (sc), vehicle: saline.

Where “and” joins values, the source holds several entries; their conditions need not be identical. Identical values can stand only once. Toxic doses and inconclusive results are not listed.

In the case of `O=NN(CCCl)C(=O)Nc1c[nH]c(=O)[nH]c1=O`, the T/C (endpoint: mean survival time, dose: 4.4 mg/kg/injection, schedule: Q01DX001 (ip), vehicle: carboxymethylcellulose (CMC)) was 103 % of control; the T/C (endpoint: mean survival time, dose: 6.7 mg/kg/injection, schedule: Q01DX001 (ip), vehicle: carboxymethylcellulose (CMC)) was 101 % of control; the T/C (endpoint: mean survival time, dose: 10.0 mg/kg/injection, schedule: Q01DX001 (ip), vehicle: carboxymethylcellulose (CMC)) is 102 % of control; the T/C (endpoint: mean survival time, dose: 15.0 mg/kg/injection, schedule: Q01DX001 (ip), vehicle: carboxymethylcellulose (CMC)) is 103 % of control; the T/C (endpoint: mean survival time, dose: 20.0 mg/kg/injection, schedule: Q01DX001 (ip), vehicle: carboxymethylcellulose (CMC)) is 98 % of control; the T/C (endpoint: mean survival time, dose: 30.0 mg/kg/injection, schedule: Q01DX001 (ip), vehicle: carboxymethylcellulose (CMC)) is 107 % of control. The T/C is, setting by setting: (endpoint: mean survival time, dose: 40.0 mg/kg/injection, schedule: Q01DX001 (ip), vehicle: carboxymethylcellulose (CMC)) 100 % of control; (endpoint: mean survival time, dose: 60.0 mg/kg/injection, schedule: Q01DX001 (ip), vehicle: carboxymethylcellulose (CMC)) 94 % of control.
For the compound `COc1ccc(NC(=O)N(C)N=O)cc1`, the T/C (endpoint: mean survival time, dose: 67.0 mg/kg/injection, schedule: Q01DX001 (ip), vehicle: carboxymethylcellulose (CMC)) was 94 % of control and the T/C (endpoint: mean survival time, dose: 100.0 mg/kg/injection, schedule: Q01DX001 (ip), vehicle: carboxymethylcellulose (CMC)) was 90 % of control.
With `COc1cc(NS(C)(=O)=O)ccc1Nc1c2ccccc2nc2ccccc12`, the T/C runs as follows: (endpoint: mean survival time, dose: 0.5 mg/kg/injection, schedule: Q01DX009 (ip), vehicle: other) 98 % of control; under setting [1], 100 % of control; (endpoint: mean survival time, dose: 0.75 mg/kg/injection, schedule: Q01DX009 (sc), vehicle: saline) 101 % of control; (endpoint: mean survival time, dose: 1.0 mg/kg/injection, schedule: Q01DX009 (ip), vehicle: other) 92 % of control; (endpoint: mean survival time, dose: 1.25 mg/kg/injection, schedule: Q01DX009 (ip), vehicle: saline) 97 % of control; (endpoint: mean survival time, dose: 1.25 mg/kg/injection, schedule: Q01DX009 (sc), vehicle: saline) 94 % of control. In addition, the T/C is 100 % of control under setting [2]; 93 % of control (endpoint: mean survival time, dose: 1.5 mg/kg/injection, schedule: Q01DX009 (sc), vehicle: saline); 92 % of control (endpoint: mean survival time, dose: 1.8 mg/kg/injection, schedule: Q01DX009 (ip), vehicle: water); 105 % of control (endpoint: mean survival time, dose: 2.0 mg/kg/injection, schedule: Q01DX009 (ip), vehicle: other); 108 % of control and 97 % of control under setting [3]; 98 % of control and 95 % of control under setting [4]. Also, the T/C runs as follows: (endpoint: mean survival time, dose: 3.0 mg/kg/injection, schedule: Q01DX009 (ip), vehicle: saline) 102 % of control; (endpoint: mean survival time, dose: 3.0 mg/kg/injection, schedule: Q01DX009 (ip), vehicle: water) 88 % of control; (endpoint: mean survival time, dose: 3.0 mg/kg/injection, schedule: Q01DX009 (sc), vehicle: saline) 92 % of control; under setting [5], 121 % of control and 108 % of control; under setting [6], 101 % of control and 93 % of control; (endpoint: mean survival time, dose: 6.0 mg/kg/injection, schedule: Q01DX009 (ip), vehicle: saline) 104 % of control. For the same compound, the T/C (endpoint: mean survival time, dose: 6.0 mg/kg/injection, schedule: Q01DX009 (sc), vehicle: saline) is 96 % of control; the T/C (endpoint: mean survival time, dose: 10.0 mg/kg/injection, schedule: Q01DX009 (ip), vehicle: saline) is 111 % of control; the T/C under setting [7] was 100 % of control and 98 % of control; the T/C (endpoint: mean survival time, dose: 20.0 mg/kg/injection, schedule: Q01DX009 (sc), vehicle: saline) is 109 % of control.
With `N#CCCN1c2ccccc2Sc2ccccc21`, the T/C (endpoint: mean survival time, dose: 12.5 mg/kg/injection, schedule: Q04DX003 (ip), vehicle: Klucel (hydroxypropylcellulose) (HPC)) was 100 % of control; the T/C (endpoint: mean survival time, dose: 25.0 mg/kg/injection, schedule: Q04DX003 (ip), vehicle: Klucel (hydroxypropylcellulose) (HPC)) was 96 % of control; the T/C (endpoint: mean survival time, dose: 50.0 mg/kg/injection, schedule: Q04DX003 (ip), vehicle: Klucel (hydroxypropylcellulose) (HPC)) was 109 % of control; the T/C (endpoint: mean survival time, dose: 100.0 mg/kg/injection, schedule: Q04DX003 (ip), vehicle: Klucel (hydroxypropylcellulose) (HPC)) is 104 % of control; the T/C (endpoint: mean survival time, dose: 200.0 mg/kg/injection, schedule: Q04DX003 (ip), vehicle: Klucel (hydroxypropylcellulose) (HPC)) is 98 % of control.
`COS(C)(=O)=O`: the T/C reads like this: (endpoint: median survival time, dose: 16.0 mg/kg/injection, schedule: Q01DX005 (ip), vehicle: saline) 104 % of control; (endpoint: median survival time, dose: 32.0 mg/kg/injection, schedule: Q01DX005 (ip), vehicle: saline) 99 % of control; (endpoint: median survival time, dose: 64.0 mg/kg/injection, schedule: Q01DX005 (ip), vehicle: saline) 99 % of control; (endpoint: median survival time, dose: 128.0 mg/kg/injection, schedule: Q01DX005 (ip), vehicle: saline) 101 % of control.
For `CCNC1=C(N2CC2)C(=O)C(NCC)=C(N2CC2)C1=O`, the T/C (endpoint: mean survival time, dose: 0.37 mg/kg/injection, schedule: Q01DX009 (ip), vehicle: saline) is 101 % of control and 100 % of control; the T/C under setting [1] was 104 % of control and 117 % of control; the T/C under setting [2] is 124 % of control.
Turning to `O=NN(CCF)C(=O)NCCCl`, the T/C (endpoint: mean survival time, dose: 9.0 mg/kg/injection, schedule: Q01DX001 (ip), vehicle: Klucel (hydroxypropylcellulose) (HPC)) is 156 % of control and 203 % of control; the T/C (endpoint: mean survival time, dose: 14.0 mg/kg/injection, schedule: Q01DX001 (ip), vehicle: Klucel (hydroxypropylcellulose) (HPC)) is 233 % of control and 338 % of control; the T/C (endpoint: mean survival time, dose: 21.0 mg/kg/injection, schedule: Q01DX001 (ip), vehicle: Klucel (hydroxypropylcellulose) (HPC)) was 456 % of control and 513 % of control; the T/C (endpoint: mean survival time, dose: 32.0 mg/kg/injection, schedule: Q01DX001 (ip), vehicle: Klucel (hydroxypropylcellulose) (HPC)) was 622 % of control and 710 % of control; the T/C (endpoint: mean survival time, dose: 48.0 mg/kg/injection, schedule: Q01DX001 (ip), vehicle: Klucel (hydroxypropylcellulose) (HPC)) was 727 % of control; the T/C (endpoint: mean survival time, dose: 71.0 mg/kg/injection, schedule: Q01DX001 (ip), vehicle: Klucel (hydroxypropylcellulose) (HPC)) was 228 % of control.
Consider `NC(=O)N(CCCl)N=O`, for which the T/C (endpoint: mean survival time, dose: 1.2 mg/kg/injection, schedule: Q01DX001 (ip), vehicle: saline) is 115 % of control; the T/C (endpoint: mean survival time, dose: 1.8 mg/kg/injection, schedule: Q01DX001 (ip), vehicle: saline) was 112 % of control; the T/C (endpoint: mean survival time, dose: 3.6 mg/kg/injection, schedule: Q01DX001 (ip), vehicle: saline) is 163 % of control; the T/C (endpoint: mean survival time, dose: 5.0 mg/kg/injection, schedule: Q01DX001 (ip), vehicle: carboxymethylcellulose (CMC)) was 176 % of control and 187 % of control; the T/C (endpoint: mean survival time, dose: 7.2 mg/kg/injection, schedule: Q01DX001 (ip), vehicle: saline) is 159 % of control and 229 % of control; the T/C (endpoint: mean survival time, dose: 7.5 mg/kg/injection, schedule: Q01DX001 (ip), vehicle: carboxymethylcellulose (CMC)) is 108 % of control.
Consider `CN1CCN(CCCN2c3ccccc3Sc3ccc(Cl)cc32)CC1`, for which the T/C runs as follows: (endpoint: mean survival time, dose: 16.6 mg/kg/injection, schedule: Q01DX009 (ip), vehicle: saline) 108 % of control; (endpoint: mean survival time, dose: 25.0 mg/kg/injection, schedule: Q01DX009 (ip), vehicle: saline) 103 % of control.
With `CC(=O)c1ccc(NC(=O)N(CCCl)N=O)cc1`, the T/C (endpoint: mean survival time, dose: 37.5 mg/kg/injection, schedule: Q01DX001 (ip), vehicle: carboxymethylcellulose (CMC)) is 117 % of control; the T/C (endpoint: mean survival time, dose: 50.0 mg/kg/injection, schedule: Q01DX001 (ip), vehicle: carboxymethylcellulose (CMC)) is 118 % of control; the T/C (endpoint: mean survival time, dose: 75.0 mg/kg/injection, schedule: Q01DX001 (ip), vehicle: carboxymethylcellulose (CMC)) is 121 % of control.
`COc1cc(NS(C)(=O)=O)ccc1Nc1c2ccc([N+](=O)[O-])cc2nc2c(C)cccc12`: the T/C under setting [3] was 93 % of control; the T/C under setting [4] is 93 % of control; the T/C under setting [5] was 103 % of control; the T/C under setting [6] is 96 % of control; the T/C under setting [7] is 93 % of control.
